Data as given in ChEMBL document CHEMBL1123169, “Structurally specific binding of halogenated biphenyls to thyroxine transport protein” (J Med Chem, 1986).

Experiments:
[1] = target: Transthyretin (Homo sapiens) (UniProt P02766)
Description: Relative binding affinity to prealbumin was determined from the competition binding assays and is expressed relative to L-T4

[2] = target: Transthyretin (Homo sapiens) (UniProt P02766); assay: Concentration at which 50% total binding to prealbumin protein.
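Throughout, for Binding affinity: competition binding to prealbumin, with affinity given relative to L-T4 as the reference ligand.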

SMILES	Binding affinity [1]	Concentration [2]
Oc1c(Cl)cc(-c2ccccc2)cc1Cl	851	–
Oc1ccc(-c2cc(Cl)c(Cl)c(Cl)c2Cl)cc1	286	–
NC(Cc1cc(I)c(-c2cc(I)c(O)c(I)c2)c(I)c1)C(=O)O (racemic)	331	3 nM
O=C(O)c1cc(I)c(-c2cc(I)c(O)c(I)c2)c(I)c1	1150	0.87 nM
Oc1c(Cl)cc(Cl)cc1-c1ccccc1	28	–
NC(Cc1ccc(Oc2cc(I)c(O)c(I)c2)c(I)c1)C(=O)O (configuration not stated)	23	–
Clc1cccc(Cl)c1-c1c(Cl)cccc1Cl	< 5	–
N[C@@H](Cc1cc(I)c(Oc2cc(I)c(O)c(I)c2)c(I)c1)C(=O)O	100	–
N[C@@H](Cc1cc(I)c(Oc2ccc(O)c(I)c2)c(I)c1)C(=O)O	2	–
Oc1c(Cl)cc(-c2cc(Cl)c(O)c(Cl)c2)cc1Cl	661	1.5 nM
Clc1cc(-c2cc(Cl)c(Cl)c(Cl)c2)cc(Cl)c1Cl	313	–
c1ccc(-c2ccccc2)cc1	< 5	–
Oc1c(-c2cc(Cl)c(Cl)c(Cl)c2)cc(Cl)c(Cl)c1Cl	208	–
Clc1cc(Cl)cc(-c2cc(Cl)cc(Cl)c2)c1	411	–
NC(Cc1cc(I)c(Oc2cc(I)c(O)c(I)c2)c(I)c1)C(=O)O (configuration not stated)	63	–
Oc1ccc(-c2c(Cl)c(Cl)c(O)c(Cl)c2Cl)cc1	398	2.5 nM
Oc1c(Cl)cc(-c2ccc(Cl)cc2)cc1Cl	501	–
Oc1ccc(-c2c(Cl)cc(Cl)cc2Cl)cc1	46	–
